# Measurements from US10479780B2, “Aminopyrazole derivatives” (Chugai Seiyaku Kabushiki Kaisha, priority 2015, dated 2019).
# How the values were obtained:
# Type in all cases: biochemical
# [1] = biological target: T1, human Lck enzyme (Homo sapiens, UniProt P06239); test: Lck enzyme inhibitory activity (time-resolved fluorometry, biotinylated peptide phosphorylation); details: biotinylated peptide phosphorylation, read-out: LCK_IC50
# T1 construct: purchased Carna Biosciences, Inc. 08-170
# Summary of the method: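 Readout pairs a europium cryptate-labelled anti-phosphotyrosine antibody with XL665-streptavidin, measured by time-resolved fluorescence. IC50 derived from percent inhibition against untreated controls.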
# [2] = biological target: T2, human Src enzyme (Homo sapiens, UniProt P12931); test: Src enzyme inhibitory activity (time-resolved fluorometry, biotinylated peptide phosphorylation); details: biotinylated peptide phosphorylation, read-out: SRC_IC50
# T2 construct: purchased Carna Biosciences, Inc. 08-173
# Summary of the method: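 Compounds were tested for blocking tyrosine phosphorylation of a biotinylated peptide substrate by recombinant human Src. Phosphorylated product was quantified by time-resolved fluorometry using europium cryptate and XL665 conjugates, and IC50 was calculated against the compound-free control.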
# [3] = biological target: T3, human Yes1 enzyme (Homo sapiens, UniProt P07947); test: Yes1 enzyme inhibitory activity (time-resolved fluorometry, biotinylated peptide phosphorylation); details: biotinylated peptide phosphorylation, read-out: YES_IC50
# T3 construct: made in house
# Summary of the method: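 Inhibition was expressed against a compound-free control to give IC50, using TR-FRET read-out (Eu-cryptate anti-pTyr antibody, streptavidin-XL665).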
# T1 sequence (P06239 whole entry): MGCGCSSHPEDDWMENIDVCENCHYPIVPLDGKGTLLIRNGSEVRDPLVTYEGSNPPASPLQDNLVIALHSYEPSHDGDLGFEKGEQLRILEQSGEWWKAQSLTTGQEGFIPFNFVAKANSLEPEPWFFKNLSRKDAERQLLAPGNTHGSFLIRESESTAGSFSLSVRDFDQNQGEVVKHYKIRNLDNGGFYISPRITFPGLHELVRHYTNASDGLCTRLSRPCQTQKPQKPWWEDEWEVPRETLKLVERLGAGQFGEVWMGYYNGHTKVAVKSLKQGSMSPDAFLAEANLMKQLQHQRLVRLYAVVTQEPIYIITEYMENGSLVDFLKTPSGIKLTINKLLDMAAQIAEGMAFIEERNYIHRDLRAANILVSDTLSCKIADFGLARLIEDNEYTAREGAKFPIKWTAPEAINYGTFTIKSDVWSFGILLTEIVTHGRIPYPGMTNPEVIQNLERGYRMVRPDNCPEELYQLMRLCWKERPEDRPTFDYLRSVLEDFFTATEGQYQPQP
# T2 sequence (P12931 whole entry): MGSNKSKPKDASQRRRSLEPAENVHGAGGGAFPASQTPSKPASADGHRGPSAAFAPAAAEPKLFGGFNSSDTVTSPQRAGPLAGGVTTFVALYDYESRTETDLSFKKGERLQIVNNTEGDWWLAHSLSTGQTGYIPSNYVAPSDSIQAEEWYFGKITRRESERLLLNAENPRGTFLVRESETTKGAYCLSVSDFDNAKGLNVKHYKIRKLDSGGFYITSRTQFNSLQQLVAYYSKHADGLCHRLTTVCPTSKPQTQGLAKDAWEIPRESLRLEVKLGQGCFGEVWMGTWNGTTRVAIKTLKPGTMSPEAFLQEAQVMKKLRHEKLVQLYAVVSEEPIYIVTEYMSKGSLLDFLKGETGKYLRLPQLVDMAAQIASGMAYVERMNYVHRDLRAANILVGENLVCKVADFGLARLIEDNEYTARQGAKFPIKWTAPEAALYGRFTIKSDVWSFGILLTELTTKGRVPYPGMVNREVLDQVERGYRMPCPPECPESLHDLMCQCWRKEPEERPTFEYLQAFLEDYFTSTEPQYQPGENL
# T3 sequence (P07947 whole entry): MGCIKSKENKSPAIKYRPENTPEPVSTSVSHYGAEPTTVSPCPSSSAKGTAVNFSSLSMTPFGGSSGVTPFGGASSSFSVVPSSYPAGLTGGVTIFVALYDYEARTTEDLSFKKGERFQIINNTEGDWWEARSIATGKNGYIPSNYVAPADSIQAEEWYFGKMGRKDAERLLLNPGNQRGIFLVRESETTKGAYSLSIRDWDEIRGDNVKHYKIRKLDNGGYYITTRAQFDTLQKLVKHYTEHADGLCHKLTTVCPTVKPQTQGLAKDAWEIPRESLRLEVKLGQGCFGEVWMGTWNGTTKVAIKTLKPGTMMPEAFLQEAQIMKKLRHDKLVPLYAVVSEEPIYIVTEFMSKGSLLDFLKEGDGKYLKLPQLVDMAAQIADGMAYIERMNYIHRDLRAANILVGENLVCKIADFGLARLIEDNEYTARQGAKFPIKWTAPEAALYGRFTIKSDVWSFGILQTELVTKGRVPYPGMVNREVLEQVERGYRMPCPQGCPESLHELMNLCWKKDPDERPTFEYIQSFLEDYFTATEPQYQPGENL
SMILES,IC50 [1],IC50 [2],IC50 [3]
"Cc1cccc(S(=O)(=O)Nc2cc3[nH]c(C(=O)c4cnn(-c5cnc(Oc6c(F)cccc6F)cc5C)c4N)cc3cc2F)n1 [Example 5-1-533, N-[2-[5-amino-1-[6-(2,6-difluorophenoxy)-4-methylpyridin-3-yl]pyrazole-4-carbonyl]-5-fluoro-1H-indol-6-yl]-6-methylpyridine-2-sulfonamide]",120 nM,510 nM,4.7 nM
"Cc1cc2cc(C(=O)c3cnn(-c4cnc(Oc5c(F)cccc5F)cc4C)c3N)[nH]c2cc1NS(=O)(=O)c1cncc(Cl)c1 [Example 5-1-541, N-[2-[5-amino-1-[6-(2,6-difluorophenoxy)-4-methylpyridin-3-yl]pyrazole-4-carbonyl]-5-methyl-1H-indol-6-yl]-5-chloropyridine-3-sulfonamide]",280 nM,660 nM,12 nM
"Cc1cc(Oc2c(F)cccc2F)ncc1-n1ncc(C(=O)c2cc3cc(F)c(NS(=O)(=O)c4cncc(Cl)c4)cc3[nH]2)c1N [Example 5-1-543, N-[2-[5-amino-1-[6-(2,6-difluorophenoxy)-4-methylpyridin-3-yl]pyrazole-4-carbonyl]-5-fluoro-1H-indol-6-yl]-5-chloropyridine-3-sulfonamide]",360 nM,640 nM,9.8 nM
"Cc1cc(Oc2ccccc2F)ncc1-n1ncc(C(=O)c2cc3cc(F)c(NS(=O)(=O)c4cncc(Cl)c4)cc3[nH]2)c1N [Example 5-1-544, N-[2-[5-amino-1-[6-(2-fluorophenoxy)-4-methylpyridin-3-yl]pyrazole-4-carbonyl]-5-fluoro-1H-indol-6-yl]-5-chloropyridine-3-sulfonamide]",330 nM,680 nM,8.4 nM
"Cc1cc2cc(C(=O)c3cnn(-c4cnc(Oc5c(F)cccc5F)cc4C)c3N)[nH]c2cc1NS(=O)(=O)c1cncc(F)c1 [Example 5-1-546, N-[2-[5-amino-1-[6-(2,6-difluorophenoxy)-4-methylpyridin-3-yl]pyrazole-4-carbonyl]-5-methyl-1H-indol-6-yl]-5-fluoropyridine-3-sulfonamide]",78 nM,680 nM,6.1 nM
"Cc1cc(Oc2c(F)cccc2F)ncc1-n1ncc(C(=O)c2cc3cc(F)c(NS(=O)(=O)c4cncc(F)c4)cc3[nH]2)c1N [Example 5-1-548, N-[2-[5-amino-1-[6-(2,6-difluorophenoxy)-4-methylpyridin-3-yl]pyrazole-4-carbonyl]-5-fluoro-1H-indol-6-yl]-5-fluoropyridine-3-sulfonamide]",78 nM,640 nM,7.6 nM
"Cc1cc(Oc2ccccc2F)ncc1-n1ncc(C(=O)c2cc3cc(F)c(NS(=O)(=O)c4cncc(F)c4)cc3[nH]2)c1N [Example 5-1-549, N-[2-[5-amino-1-[6-(2-fluorophenoxy)-4-methylpyridin-3-yl]pyrazole-4-carbonyl]-5-fluoro-1H-indol-6-yl]-5-fluoropyridine-3-sulfonamide]",80 nM,740 nM,7.7 nM
"Cc1cc2cc(C(=O)c3cnn(-c4cnc(Oc5c(F)cccc5F)cc4C)c3N)[nH]c2cc1NS(=O)(=O)c1cccc(F)c1 [Example 5-1-551, N-[2-[5-amino-1-[6-(2,6-difluorophenoxy)-4-methylpyridin-3-yl]pyrazole-4-carbonyl]-5-methyl-1H-indol-6-yl]-3-fluorobenzenesulfonamide]",240 nM,970 nM,19 nM
"Cc1cc(Oc2c(F)cccc2F)ncc1-n1ncc(C(=O)c2cc3cc(F)c(NS(=O)(=O)c4cccc(F)c4)cc3[nH]2)c1N [Example 5-1-553, N-[2-[5-amino-1-[6-(2,6-difluorophenoxy)-4-methylpyridin-3-yl]pyrazole-4-carbonyl]-5-fluoro-1H-indol-6-yl]-3-fluorobenzenesulfonamide]",370 nM,1300 nM,17 nM

# Second part, the compound after the results:
IC50 [1],IC50 [2],IC50 [3],SMILES
170 nM,640 nM,5.1 nM,"Cc1cccc(S(=O)(=O)Nc2cc3[nH]c(C(=O)c4cnn(-c5cnc(Oc6ccccc6F)cc5C)c4N)cc3cc2F)n1 [Example 5-1-534, N-[2-[5-amino-1-[6-(2-fluorophenoxy)-4-methylpyridin-3-yl]pyrazole-4-carbonyl]-5-fluoro-1H-indol-6-yl]-6-methylpyridine-2-sulfonamide]"
78 nM,390 nM,4.1 nM,"Cc1cc2cc(C(=O)c3cnn(-c4ccc(Oc5ccccc5F)cc4C)c3N)[nH]c2cc1NS(=O)(=O)c1cccc(C#N)n1 [Example 5-1-535, N-[2-[5-amino-1-[4-(2-fluorophenoxy)-2-methylphenyl]pyrazole-4-carbonyl]-5-methyl-1H-indol-6-yl]-6-cyanopyridine-2-sulfonamide]"
92 nM,560 nM,9.2 nM,"Cc1cc2cc(C(=O)c3cnn(-c4cnc(Oc5c(F)cccc5F)cc4C)c3N)[nH]c2cc1NS(=O)(=O)c1cccc(C#N)n1 [Example 5-1-536, N-[2-[5-amino-1-[6-(2,6-difluorophenoxy)-4-methylpyridin-3-yl]pyrazole-4-carbonyl]-5-methyl-1H-indol-6-yl]-6-cyanopyridine-2-sulfonamide]"
57 nM,320 nM,3 nM,"Cc1cc(Oc2ccccc2F)ccc1-n1ncc(C(=O)c2cc3cc(F)c(NS(=O)(=O)c4cccc(C#N)n4)cc3[nH]2)c1N [Example 5-1-537, N-[2-[5-amino-1-[4-(2-fluorophenoxy)-2-methylphenyl]pyrazole-4-carbonyl]-5-fluoro-1H-indol-6-yl]-6-cyanopyridine-2-sulfonamide]"
140 nM,680 nM,9.6 nM,"Cc1cc(Oc2c(F)cccc2F)ncc1-n1ncc(C(=O)c2cc3cc(F)c(NS(=O)(=O)c4cccc(C#N)n4)cc3[nH]2)c1N [Example 5-1-538, N-[2-[5-amino-1-[6-(2,6-difluorophenoxy)-4-methylpyridin-3-yl]pyrazole-4-carbonyl]-5-fluoro-1H-indol-6-yl]-6-cyanopyridine-2-sulfonamide]"
220 nM,800 nM,11 nM,"Cc1cc(Oc2ccccc2F)ncc1-n1ncc(C(=O)c2cc3cc(F)c(NS(=O)(=O)c4cccc(C#N)n4)cc3[nH]2)c1N [Example 5-1-539, N-[2-[5-amino-1-[6-(2-fluorophenoxy)-4-methylpyridin-3-yl]pyrazole-4-carbonyl]-5-fluoro-1H-indol-6-yl]-6-cyanopyridine-2-sulfonamide]"
96 nM,350 nM,3.5 nM,"Cc1cc2cc(C(=O)c3cnn(-c4ccc(Oc5ccccc5F)cc4C)c3N)[nH]c2cc1NS(=O)(=O)c1cncc(Cl)c1 [Example 5-1-540, N-[2-[5-amino-1-[4-(2-fluorophenoxy)-2-methylphenyl]pyrazole-4-carbonyl]-5-methyl-1H-indol-6-yl]-5-chloropyridine-3-sulfonamide]"
180 nM,430 nM,3.6 nM,"Cc1cc(Oc2ccccc2F)ccc1-n1ncc(C(=O)c2cc3cc(F)c(NS(=O)(=O)c4cncc(Cl)c4)cc3[nH]2)c1N [Example 5-1-542, N-[2-[5-amino-1-[4-(2-fluorophenoxy)-2-methylphenyl]pyrazole-4-carbonyl]-5-fluoro-1H-indol-6-yl]-5-chloropyridine-3-sulfonamide]"
22 nM,150 nM,3.1 nM,"Cc1cc2cc(C(=O)c3cnn(-c4ccc(Oc5ccccc5F)cc4C)c3N)[nH]c2cc1NS(=O)(=O)c1cncc(F)c1 [Example 5-1-545, N-[2-[5-amino-1-[4-(2-fluorophenoxy)-2-methylphenyl]pyrazole-4-carbonyl]-5-methyl-1H-indol-6-yl]-5-fluoropyridine-3-sulfonamide]"
30 nM,350 nM,2.9 nM,"Cc1cc(Oc2ccccc2F)ccc1-n1ncc(C(=O)c2cc3cc(F)c(NS(=O)(=O)c4cncc(F)c4)cc3[nH]2)c1N [Example 5-1-547, N-[2-[5-amino-1-[4-(2-fluorophenoxy)-2-methylphenyl]pyrazole-4-carbonyl]-5-fluoro-1H-indol-6-yl]-5-fluoropyridine-3-sulfonamide]"
72 nM,490 nM,5.1 nM,"Cc1cc2cc(C(=O)c3cnn(-c4ccc(Oc5ccccc5F)cc4C)c3N)[nH]c2cc1NS(=O)(=O)c1cccc(F)c1 [Example 5-1-550, N-[2-[5-amino-1-[4-(2-fluorophenoxy)-2-methylphenyl]pyrazole-4-carbonyl]-5-methyl-1H-indol-6-yl]-3-fluorobenzenesulfonamide]"
130 nM,830 nM,5.4 nM,"Cc1cc(Oc2ccccc2F)ccc1-n1ncc(C(=O)c2cc3cc(F)c(NS(=O)(=O)c4cccc(F)c4)cc3[nH]2)c1N [Example 5-1-552, N-[2-[5-amino-1-[4-(2-fluorophenoxy)-2-methylphenyl]pyrazole-4-carbonyl]-5-fluoro-1H-indol-6-yl]-3-fluorobenzenesulfonamide]"
260 nM,1500 nM,13 nM,"Cc1cc(Oc2ccccc2F)ncc1-n1ncc(C(=O)c2cc3cc(F)c(NS(=O)(=O)c4cccc(F)c4)cc3[nH]2)c1N [Example 5-1-554, N-[2-[5-amino-1-[6-(2-fluorophenoxy)-4-methylpyridin-3-yl]pyrazole-4-carbonyl]-5-fluoro-1H-indol-6-yl]-3-fluorobenzenesulfonamide]"
